The text below walks through data of article PMC4222822, “Discovery and Characterization of a Potent and Selective Inhibitor of Aedes aegypti Inward Rectifier Potassium Channels” (PLoS ONE, 2014).

Like-named read-outs stand apart in the source and are kept apart here. Some results are limits rather than exact numbers.

One assay concerns the target AeKir1 (Aedes aegypti, UniProt L0EQS9). In words: Tl+ flux assay in T-REx-HEK293-AeKir1 cells. The format is cell-based. As to conditions: for IC50: read-out: IC50±SEM. As to the method:
Tl^+ flux assays were performed essentially as described previously, [18], [19]. Briefly, stably transfected T-Rex-HEK-293 cells expressing AeKir1 channels were cultured overnight in 384-well plates (20,000 cells/20 µL/well black-walled, clear-bottomed BD PureCoat amine-coated plates (BD, Bedford, MA) with a plating media containing DMEM, 10% dialyzed FBS and 1 µg/mL tetracycline. The next day, the cell culture medium was replaced with a dye-loading solution containing assay buffer (Hanks Balanced Salt Solution with 20 mM HEPES, pH 7.3), 0.01% (w/v) Pluronic F-127 (Life Technologies, Carlsbad, CA), and 1.2 µM of the thallium-sensitive dye Thallos-AM (TEFlabs, Austin, TX). Following 1 hr incubation at room temperature, the dye-loading solution was washed from the plates and replaced with 20 µL/well of assay buffer. The plates were transferred to a Hamamatsu Functional Drug Screening System 6000 (FDSS6000; Hamamatsu, Hamamatsu (or Bridgewater, NJ), Japan) where 20 µL/well of test compounds in assay buffer (as prepared below) were added and allowed to incubate with the cells for 20 min. After the incubation period, a baseline recording was collected at 1 Hz for 10 s (excitation 470±20 nm, emission 540±30 nm) followed by a Tl^+ stimulus buffer addition (10 µL/well) and data collection for an additional 4 min. The Tl^+ stimulus buffer contains in (mM) 125 NaHCO3, 1.8 CaSO4, 1 MgSO4, 5 glucose, 12 Tl2SO4, 10 HEPES, pH 7.4. For Tl^+ flux assays on the mammalian channels Kir2.x, Kir4.1 and Kir6.2/SUR1 expressing cells, the Tl^+ stimulus buffer contained 1.8 mM Tl2SO4. Also, Tl^+ flux assays on Kir3.1/3.2/mGlu8 expressing cell, required addition of an EC80 concentration of glutamate (Sigma-Aldrich, St. Louis, MO) with the Tl^+ stimulus buffer. The test compounds were transferred to daughter polypropylene 384-well plates (Greiner Bio-One, Monroe, NC) using an Echo555 liquid handler (Labcyte, Sunnyvale, CA), and then diluted into assay buffer to generate a 2X stock in 0.6% DMSO (0.3% final). For Tl^+ flux assays on Kir6.2/SUR1 expressing cells, test compounds were diluted in assay buffer containing diazoxide (250 µM final) to induce channel activation. Concentration-response curves (CRCs) were generated by screening compounds at 3-fold dilution series in 4-point (1 µM–30 µM) or 11-point (1 nM–30 µM) CRCs. Tl^+ flux data were analyzed as previously described, [21], [22] using a combination of Excel (Microsoft Corp, Redmond, WA) with XLfit add-in (IDBS, Guildford, Surrey, UK) and OriginPro (OriginLab, Northampton, MA) software. Raw data were opened in Excel and each data point in a given trace was divided by the first data point from that trace (static ratio) followed by subtraction of data points from control traces generated in the presence of vehicle controls. The slope of the fluorescence increase beginning 5 s after Tl^+ addition and ending 15 s after Tl^+ addition was calculated. To compare the effect of DMSO on AeKir1-mediated Tl^+ flux, a one-way ANOVA was performed with a Tukey's multiple comparison test. Prism software (GraphPad Software) was used to generate CRC from Tl^+ flux. Half-inhibition concentration (IC50) values were calculated from fits using a four parameter logistic equation.

Assay [1] has as its system adult female mosquitoes (A. aegypti). The arrangement: method as in PMID 23734226, PMID 24959745. The following applies: within 24 h; cited from earlier work.
The test system is the same in assay [2]. On the set-up: method as in PMID 23734226, PMID 24959745. As to conditions: after loading hemolymph with 900 nl of a PBS vehicle; cited from earlier work.
In a further assay the test system is mosquitoes. In words: Toxicity when applied to the cuticle (topical). The class given is in vivo. As to conditions: Piermarini, unpublished observations.
Another assay deals with AeKir2B (Aedes aegypti, UniProt L0EQ40). The arrangement: method as in PMID 24959745. The following applies: cited from earlier work.
The subject of assay [3] is adult female mosquitoes (A. aegypti). In words: Mosquito excretion experiments (excretory capacity). The class given is in vivo, Aedes aegypti. The following applies: probenecid 3.4 nmol per mosquito in 900 nL vehicle, 1 h after injection; mean ±SEM. As for the experimental part: The Aedes aegypti mosquito colony used in the present study is identical to that described previously. As before, only adult female mosquitoes 3–10 days post emergence were utilized for experiments.
The excretory capacity of mosquitoes was measured as described. In brief, after anesthetizing mosquitoes on ice, their hemolymph was injected as described above with 900 nL of a K^+-PBS vehicle containing 1.15% DMSO, 0.077% β-cyclodextrin, and 0.008% Solutol, or the vehicle containing VU625 (0.77 mM) to deliver a dose of 690 pmol of VU625 per mosquito. In experiments where probenecid was used, the vehicle was supplemented with water- soluble probenecid […] to deliver a dose of 3.4 nmol of probenecid per mosquito. After injection, the mosquitoes were placed immediately in a graduated, packed-cell volume tube (MidSci, St. Louis, MO; 5 mosquitoes per tube) and held at 28°C. The volume of urine excreted at 60 min post injection was measured as described previously, and all mosquitoes were confirmed to be alive at the end of 60 min period. For each treatment, 6–18 independent trials of 5 mosquitoes per treatment were performed.
Prism (GraphPad Software) was used to generate a dose-response curve for the toxicity of VU625; the doses (x-axis) were first log transformed and then the mortality data was normalized using Prism, where the smallest value and largest values in a data set equal ‘0%’ and ‘100%’, respectively. The data were then fitted using a ‘biphasic’ algorithm (<100 constraint) to calculate potencies (ED25 and ED75 values). To compare 1) the toxic effects among the vehicle, probenecid, VU625, and VU625 + probenecid treatments, and 2) the excretory capacity among the vehicle, probenecid, VU625, and VU625 + probenecid treatments, one-way ANOVAs were performed with Newman-Keuls posttests.

[4] abbreviates: Table 2, southern amide SAR, 11-point CRCs on AeKir1 in Tl+ flux, triplicate on two separate days.
[5] abbreviates: Table 3, central core SAR, 11-point CRCs on AeKir1 in Tl+ flux, triplicate on two separate days.

AeKir1, sequence (L0EQS9 entry or part of it): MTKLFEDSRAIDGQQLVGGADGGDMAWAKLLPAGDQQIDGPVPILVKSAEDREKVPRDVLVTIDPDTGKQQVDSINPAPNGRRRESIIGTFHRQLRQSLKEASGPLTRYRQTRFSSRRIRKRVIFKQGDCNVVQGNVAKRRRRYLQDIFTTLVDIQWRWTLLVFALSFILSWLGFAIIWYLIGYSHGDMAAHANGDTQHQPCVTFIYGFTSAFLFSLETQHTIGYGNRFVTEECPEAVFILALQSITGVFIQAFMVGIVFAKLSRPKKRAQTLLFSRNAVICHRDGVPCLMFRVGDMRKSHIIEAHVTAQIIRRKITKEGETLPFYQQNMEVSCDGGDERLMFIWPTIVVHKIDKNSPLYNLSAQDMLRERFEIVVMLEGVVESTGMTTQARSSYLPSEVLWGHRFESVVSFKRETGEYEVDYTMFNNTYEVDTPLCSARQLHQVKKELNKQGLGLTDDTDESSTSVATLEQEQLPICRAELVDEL
AeKir2B, sequence (L0EQ40 entry or part of it): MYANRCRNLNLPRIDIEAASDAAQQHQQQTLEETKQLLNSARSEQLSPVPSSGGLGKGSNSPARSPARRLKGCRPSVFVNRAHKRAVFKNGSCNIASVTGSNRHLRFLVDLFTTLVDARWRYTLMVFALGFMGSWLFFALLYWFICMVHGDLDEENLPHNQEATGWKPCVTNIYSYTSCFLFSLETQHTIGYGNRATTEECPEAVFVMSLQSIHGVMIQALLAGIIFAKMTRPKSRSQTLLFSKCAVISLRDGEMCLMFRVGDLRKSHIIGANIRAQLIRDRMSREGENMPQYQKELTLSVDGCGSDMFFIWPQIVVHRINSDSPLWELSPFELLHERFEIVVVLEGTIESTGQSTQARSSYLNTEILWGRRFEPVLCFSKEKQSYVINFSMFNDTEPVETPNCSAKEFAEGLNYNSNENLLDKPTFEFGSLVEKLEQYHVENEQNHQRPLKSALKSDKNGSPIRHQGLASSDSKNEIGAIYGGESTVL

`COc1cccc(NS(=O)(=O)c2ccc3c(c2)CC(C)N3C(=O)C(F)(F)F)c1` (stereo not shown) [3b]: the IC50 (as a rule, the point on the concentration scale where inhibition reaches its midpoint) on AeKir1 (setting [4]) is 0.58 ± 0.04 µM. With `COc1cccc(NS(=O)(=O)c2ccc3c(c2)CC(C)N3C(=O)c2cccc(F)c2)c1` (stereo not shown) [3c], the half-maximal inhibitory concentration (IC50) at AeKir1 (setting [4]) is 5.2 ± 0.4 µM.

`COc1cccc(NS(=O)(=O)c2ccc3c(c2)CC(C)N3C(=O)c2ccccc2C)c1` (stereo not shown) [3d]: the IC50 on AeKir1 (setting [4]) was found to be 4.41 ± 1.11 µM. Regarding `COc1cccc(NS(=O)(=O)c2ccc3c(c2)CC(C)N3C(=O)c2cccc(C)c2)c1` (stereo not shown) [3e], the 50% inhibitory concentration (IC50) on AeKir1 (setting [4]) was 3.87 ± 1.97 µM. For `COc1cccc(NS(=O)(=O)c2ccc3c(c2)CC(C)N3C(=O)c2ccc(C)cc2)c1` (stereo not shown) [3f], the 50% inhibitory concentration (IC50) on AeKir1 (setting [4]) was greater than 30 µM.

On to `COc1cccc(NS(=O)(=O)c2ccc3c(c2)CC(C)N3C(=O)c2ccccn2)c1` (stereo not shown) [3g], for which, on AeKir1 (setting [4]), the 50% inhibitory concentration (IC50) was 4.4 ± 0.5 µM. On to `COc1cccc(NS(=O)(=O)c2ccc3c(c2)CC(C)N3S(=O)(=O)c2ccccc2)c1` (stereo not shown) [3h], for which, on AeKir1 (setting [4]), the “IC50±SEM” value is “less activity” and the IC50 worked out at 3.29 ± 0.89 µM. For `COc1cccc(NS(=O)(=O)c2ccc3c(c2)CC(C)N3C(=O)N(C)C)c1` (stereo not shown) [3i], the IC50 at AeKir1 (setting [4]) was 2.09 ± 0.49 µM. On the same count and under the same terms, the same measure for `COc1cccc(NS(=O)(=O)c2ccc3c(c2)CC(C)N3S(C)(=O)=O)c1` (stereo not shown) [3j]: 2.82 ± 0.48 µM. Same read-out and setting: the same measure for `COc1cccc(NS(=O)(=O)c2ccc3c(c2)CC(C)N3S(=O)(=O)C2CC2)c1` (stereo not shown) [3k]: 0.76 µM. Same read-out and setting: the same measure for `COc1cccc(NS(=O)(=O)c2ccc3c(c2)CC(C)N3S(=O)(=O)C(C)(C)C)c1` (stereo not shown) [3l]: 0.82 ± 0.48 µM. With `COc1cccc(NS(=O)(=O)c2ccc3c(ccn3C)c2)c1` [4a], the half-inhibitory concentration (IC50) at AeKir1 (setting [5]) came to 0.55 ± 0.08 µM. As for `COc1cccc(NS(=O)(=O)c2ccc3c(c2)cc(C)n3C)c1` [4b], the concentration for half-maximal inhibition (IC50) at AeKir1 (setting [5]) turned out to be 0.97 ± 0.1 µM.

As to `COc1cccc(NS(=O)(=O)c2ccc3c(c2)CCC(=O)N3)c1` [4c], the IC50 on AeKir1 (setting [5]) is greater than 30 µM.

With `COc1cccc(NS(=O)(=O)c2ccc3c(c2)OCC(=O)N3)c1` [4d], the IC50 on AeKir1 (setting [5]) is greater than 30 µM. On the same count and under the same terms, under `COc1cccc(NS(=O)(=O)c2ccc3c(c2)CC(=O)N3C)c1` [4e] stands greater than 30 µM. For the compound `COc1cccc(NS(=O)(=O)c2ccc3c(c2)CCN3C(C)=O)c1` [4f], on AeKir1 (AeKir1 Tl+ flux), the “loss of potency relative to VU625” value is on record as roughly 3 fold. In addition, the IC50 on AeKir1 (setting [5]) is 1.15 ± 0.05 µM. As for `Cc1ccc(OCC(O)Cn2c(=N)n(Cc3ccccc3)c3ccccc32)cc1` (stereo not shown) [VU573], the “effect of hemolymph injection on mosquitoes” value in assay [1] is “incapacitation and/or death within 24 h”. Besides, the “effect on excretory capacity” value in assay [2] was “decrease in the excretory capacity”. Further, the “toxicity when applied to the cuticle” value with mosquitoes is on record as “lack of topical activity”. Besides, at AeKir2B, the “effect on AeKir2B” value is recorded as “activates AeKir2B”. Consider `O=[N+]([O-])c1ccc(CN2CCOCCOCCN(Cc3ccc([N+](=O)[O-])cc3)CCOCC2)cc1` [VU590], for which the “effect of hemolymph injection on mosquitoes” value in assay [1] was “incapacitation and/or death within 24 h”. In assay [2], the “effect on excretory capacity” value is given as “decrease in the excretory capacity”. Further, in the assay on mosquitoes, the “toxicity when applied to the cuticle” value is on record as “lack of topical activity”. The “effect on AeKir2B” value at AeKir2B is “selective inhibitor of AeKir1 over AeKir2B”. As to `CCCN(CCC)S(=O)(=O)c1ccc(C(=O)O)cc1` [probenecid, reference compound], the “excretory capacity (urine excreted)” value in assay [3] is given as 467.8±33.53 nL/female.
